# Results from publication PMC9715595, “Optimization of the precursor supply for an enhanced FK506 production in Streptomyces tsukubaensis” (Frontiers in Bioengineering and Biotechnology, 2022).
# Key:
# [1] = target: T1, PipAf (Pip; LCD from A. friuliensis) (Actinoplanes friuliensis, UniProt U5VYY1); test: X-ray crystal structure ([…] Å); format: binding; conditions: crystallised with 1 mM NAD+; cofactor modelled as NADH; one NADH per monomer
# T1 construct: gene AFR_18570; full length, N-terminal His-tag (pET30 Ek/LIC), E. coli; monomer 339 residues, ~36 kDa, homodimer
# T1 sequence (U5VYY1 1-339): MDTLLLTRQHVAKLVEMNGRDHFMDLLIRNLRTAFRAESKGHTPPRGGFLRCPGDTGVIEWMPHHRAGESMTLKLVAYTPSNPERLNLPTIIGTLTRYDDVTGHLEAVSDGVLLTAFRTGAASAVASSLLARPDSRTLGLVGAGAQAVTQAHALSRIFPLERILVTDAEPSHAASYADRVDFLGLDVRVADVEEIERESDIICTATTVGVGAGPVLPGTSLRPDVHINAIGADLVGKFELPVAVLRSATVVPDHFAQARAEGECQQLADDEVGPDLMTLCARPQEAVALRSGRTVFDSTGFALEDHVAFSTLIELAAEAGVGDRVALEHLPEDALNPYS
# [2] = target: T1, PipAf (Pip; LCD from A. friuliensis); test: X-ray crystal structure ([…] Å); format: binding; conditions: co-crystallised with 140 mM lysine and 1 mM NAD+; NADH bound; pH 8.5; active site
# [3] = target: lysine cyclodeaminase PipAf from Actinoplanes friuliensis (Actinoplanes friuliensis); test: SEC; gel filtration on Superdex 200, 150 mM NaCl, 25 mM HEPES pH 7.4; main peak corresponds to a dimer
compound,measurement,setting,value
NC(=O)C1=CN([C@@H]2O[C@H](COP(=O)(O)OP(=O)(O)OC[C@H]3O[C@@H](n4cnc5c(N)ncnc54)[C@H](O)[C@@H]3O)[C@@H](O)[C@H]2O)C=CC1 [NADH],X-ray crystal structure (1.3 Å),[1],One molecule NADH binds per monomer via a canonical Rossman fold
NCCCC[C@H](N)C(=O)O [lysine],X-ray crystal structure (1.4 Å),[2],Lysine binds in the active site running parallel to the nicotinamide ring
lysine cyclodeaminase PipAf from Actinoplanes friuliensis (enzyme),stoichiometry N,[3],2
